{"source": "patent US20050043262A1", "about": "“Novel specific inhibitor of the cyclin kinase inhibitor p21Waf1/Cip1 and methods of using the inhibitor” (priority 2000, published 2005)", "key": {"[1]": {"tested_on": "p21^Waf1/Cip1", "assay": "p21 protein level by Western blot in A10 VSM cells", "type": "cell-based, rat", "protocol": "(§1) Western blots: Cells were grown to confluence in 6 cm culture dishes and serum deprived. After transfection and or treatment with appropriate agonist, the cells were washed with phosphate-buffered saline and lysed in lysis buffer and the supernatant was Western blotted as described (Weiss et al., 1998 Am. J. Physiol., 274, p. C1521-C1529).\nTo determine whether antisense transfection with p21^Waf1/Cip1 antisense oligonucleotides indeed decreases p21^Waf1/Cip1 protein levels, p21^Waf1/Cip1 levels after antisense transfection were examined employing the fact that PMA is a potent inducer of p21^Waf1/Cip1 (Huang et al., 1995 Proc. Natl. Acad. Sci. U.S.A., 92, p. 4793-4797; Michieli et al., 1994 Cancer Res., 54, p. 3391-3395). Since p21^Waf1/Cip1 protein levels were induced in VSM cells between 2 and 6 hours after PMA stimulation (FIG. 4), the p21^Waf1/Cip1 levels in transfected cells after similar times of PMA stimulation were examined. […] There was no effect of the p21^Waf1/Cip1 sense (SEQ. ID NO.:2) control oligodeoxynucleotide on cellular p21^Waf1/Cip1 levels (compare with FIG. 4).\nTo check for specificity of protein inhibition by the antisense p21^Waf1/Cip1 oligodeoxynucleotide (SEQ. ID NO.: 1), protein levels of p21^Waf1/Cip1 and p27^Kip1 after transfection with antisense p21^Waf1/Cip1 oligodeoxynucleotide (SEQ. ID NO.:1) were examined. In these experiments the ability of antisense oligodeoxynucleotides (SEQ. ID NO.:1) to inhibit maximally stimulated CKI expression (see FIG. 4) was assessed. The cells were stimulated with PMA for 4 hours at various times after overnight serum starvation.\n(§2) Western blots: Cells were grown to confluence in 6 cm culture dishes and serum deprived. After transfection and or treatment with appropriate agonist, conditioned medium was removed and saved and the cells were washed with phosphate-buffered saline and lysed in lysis buffer. Both supernatant and cell lysate were normalized to the lysate protein concentrations and Western blotted as described (Weiss R H, et al. Am J Physiol 274:C1521-C1529, 1998).\nTo confirm that p21 levels were increased after exposure to ionizing radiation, and that the oligonucleotides inhibit this phenomenon in A10 cells, p21 protein levels under these conditions were assayed. […] With the exception of the initial decrease in p21 levels at ½ and 1 hours, the results with the control oligonucleotides were similar to that observed in non-transfected cells.\nAdriamycin is a prototypical DNA damaging agent used in the treatment of a variety of cancers. The predominantly G2 arrest seen after Adriamycin treatment has been associated with an increase in p21 levels in some cell lines (Siu W Y, et al. FEBS Lett 461:299-305, 1999). In order to determine whether similar augmentation of p21 is seen in A10 VSM cells and whether the antisense p21 oligonucleotide is inhibiting this response, these cells were treated with Adriamycin either with or without first transfecting the cells with the antisense and control oligonucleotides. Confluent VSM cells were transfected with antisense oligonucleotide to p21 or random sequence control oligonucleotide as described above. After 24 hours, the cells were exposed to Adriamycin (500 ng/ml), lysed at the indicated times after exposure, and Western blotted with p21 antibody.\nUsing a random sequence phosphorothioate oligodeoxynucleotide (SEQ. ID NO.:3) as a control, the effect of the antisense oligodeoxynucleotide to p21 (400 nM) on p21 and α-actin protein expression in A10 VSM cells, was examined. The lysates, normalized for protein content, were Western blotted with either p21 or α-actin antibody."}, "[2]": {"tested_on": "A431 cells", "assay": "[3H]thymidine incorporation (DNA synthesis) in A431 cells", "type": "cell-based, human", "conditions": "PMA 100 ng/ml", "protocol": "FIG. 9A-D are bar graphs showing Antisense p21^Waf1/Cip1 oligodeoxynucleotide has no significant effect DNA synthesis in PMA-inhibitable A431 cells, as described in Example II, infra. […] A431 cells were placed in serum-free medium overnight and then stimulated with (A) PDGF-BB (30 ng/ml), (B) 10% serum-containing medium, or (C) PDGF-BB or PMA (100 ng/ml) for another 8 hours before [^3H]-thymidine was added for overnight incubation. (D) A10 VSM cells were transfected with sense and antisense p21^Waf1/Cip1 oligonucleotides as above and treated similarly to (B). DNA synthesis was assessed by [^3H]-thymidine incorporation and is expressed as mean ±s.e.m. of three wells per data point. The absolute counts differ between experiments due to different confluency of the cells. The experiments shown are representative of two separate experiments.\nCell culture and DNA synthesis: Cultures of A10 and A431 cells were obtained from American Type Culture Collection (Rockville Md), were maintained as described (Weiss et al. 1998, Am. J. Physiol. 274, C1521-C1529), and were used between passages 15 and 24 or 25 and 35, respectively. The cells were growth-arrested by placing them in serum-free quiescence medium, exposed to growth factors as indicated, and [^3H]thymidine incorporation assessed as previously described (Weiss and Nuccitelli, 1992, J. Biol. Chem. 267, 5608-5613).\nThis A431 data is in contrast with that obtained in a variety of VSM cell lines, where cell growth was inhibited by similar oligodeoxynucleotide concentrations in cell stimulated with both PDGF-BB and serum (FIG. 9d)."}, "[3]": {"tested_on": "A10 VSM cells", "assay": "[3H]thymidine incorporation (DNA synthesis) in A10 VSM cells", "type": "cell-based, rat"}, "[4]": {"tested_on": "p21^Waf1/Cip1", "assay": "PMA-induced p21 level by Western blot in A431 cells", "type": "cell-based, human", "conditions": "200 nM oligodeoxynucleotide, PMA 100 ng/ml up to 6 hours", "protocol": "as §1, with “and Nuccitelli, 1992” for “et al., 1998 Am.”, “Biol. Chem., 267,” for “Physiol., 274,”, “5608-5613).” for “C1521-C1529).”\nPMA is a potent inducer of p21^Waf1/Cip1 in a variety of different cell lines (Huang et al., 1995 Proc. Natl. Acad. Sci. US.A., 92, p. 4793-4797; Michieli et al., 1994 Cancer Res., 54, p. 3391-3395) and was employed to examine p21^Waf1/Cip1 levels after antisense transfection and confirm efficacy of translation to attenuate p21^Waf1/Cip1 levels. A431 cells were transfected with 200 nM antisense p21^Waf1/Cip1 (SEQ. ID NO.:1) or sense p21^Waf1/Cip1 oligodeoxynucleotide (SEQ. ID NO.:2). After overnight incubation in serum-free medium, the cells were stimulated with PMA (100 ng/ml) for the times indicated, lysed, and the lysates were Western blotted with p21^Waf1/Cip1 or α-actin antibody."}, "[5]": {"tested_on": "caspase-3", "assay": "Caspase-3 activation (cleavage product) by Western blot in VSM cells", "type": "cell-based, rat", "conditions": "Adriamycin experiment (FIG. 19b)", "protocol": "FIGS. 19A and B depict how Caspase-3 is activated by antisense oligonucleotide to p21 but not early after radiation or Adriamycin, as described in Example III, infra. Confluent VSM cells were transfected with oligonucleotide in the concentration indicated, left in serum-containing media overnight, and exposed to (A) ionizing radiation (12 Gy) or (B) Adriamycin where indicated. 4 hours later, activation of caspase-3 was assessed by Western blotting. The arrowhead indicates the cleavage product of caspase-3 signifying its processing as an early step in apoptosis. Wortmannin (wort) is a positive control for apoptosis. […] The experiment shown is representative of two separate experiments.\nas §2\nIn order to determine whether the potentiation of ionizing radiation and Adriamycin induced DNA synthesis inhibition by p21 antisense oligonucleotides is accompanied by apoptosis, caspase-3 activation in response to ionizing radiation was examined. Caspase-3 is an effector caspase whose activation (leading to apoptosis) results in a 20 kD cleavage product which can be assessed by Western blotting (McCarthy N J, Evan G I. Curr Top Dev Biol 36:259-278, 1998). This process is an early event in a cascade of reactions which ultimately leads to apoptosis, as is evident by the fact that inactivation of caspase-3 dramatically reduces apoptosis in several cell lines (Woo M, et al. Genes Dev 12:806-819, 1998).\nVSM cells were transfected with antisense or control oligonucleotides overnight and then stimulated with ionizing radiation."}, "[6]": {"tested_on": "laminin", "assay": "Laminin production and secretion (immunoblot of lysate and conditioned media)", "type": "cell-based, rat", "conditions": "control oligodeoxynucleotide transfected cells, TGF-β higher doses", "protocol": "as §2, with “and/or” for “and or”, “(Weiss, R. H.;” for “(Weiss R H,”, “Am. J. Physiol. 274: C1521-C1529;” for “Am J Physiol 274:C1521-C1529,”\nThe p21 influences on matrix protein secretion in VSM cells were determined. Levels of the matrix proteins laminin and fibronectin were examined in both TGF-β stimulated lysate and conditioned media of cells in which p21 expression had been attenuated. The cells were transfected with either antisense p21 (SEQ. ID NO.:1) (400 nM), or random sequence control (SEQ. ID NO.:3) (400 nM) oligodeoxynucleotide, and then stimulated with TGF-β at for 0.1 to 10 ng/ml for 4 hours. Conditioned media and cell lysate were collected, and both medium and lysate volumes were normalized for the protein content in total cell lysate to exclude any skewing of the data due to cell proliferation. The proteins were electrophoresed and immunoblotted with either fibronectin (after immunoprecipitation to eliminate extraneous bands which appeared in the absence of this procedure) or laminin antibody."}, "[7]": {"tested_on": "fibronectin", "assay": "Fibronectin production and secretion (immunoprecipitation/immunoblot)", "type": "cell-based, rat", "conditions": "VSM cells, TGF-β, maximal level in lysate at higher doses", "protocol": "Immunoprecipitations: VSM cells were grown to confluence. After incubation under appropriate conditions, the cells were washed with ice-cold phosphate-buffered saline and immediately lysed in lysis buffer (20 mM Tris [pH7.5], 150 mM NaCl, 1 mM EDTA, 1 mM EGTA, 1% Triton X-100, 2.5 mM sodium pyrophosphate, 1 mM β-glycerolphosphate, 1 mM Na3VO4, 1 μg/ml Leupeptin, 1 mM PMSF) at 4° C. The cells were scraped off with a rubber spatula and the insoluble material removed by centrifuging at 10,000× g for 10 min at 4° C. Protein concentration was determined by A595, and lysates containing equal amounts of protein were incubated with […] anti-fibronectin antibody at 4° C. overnight. Protein A-Sepharose beads were added and the resulting mixture was incubated for an additional 2 hours at 4° C. The beads were centrifuged in a microfuge for 20 sec, and the pellet was washed 3 times with cold lysis buffer. The supernatant was decanted, gel loading buffer was added to the precipitate, and the solution was boiled for 5 min, and centrifuged. The supernatant was electrophoresed on a 7.5% SDS-polyacrylamide gel with equal volumes of sample per lane. The proteins were electrophoretically transferred to nitrocellulose and probed with fibronectin antibody.\nThe p21 influences on matrix protein secretion in VSM cells were determined. […]"}}}
{"molecule": "CCCCCCCCCCCCCC(=O)O[C@@H]1[C@@H](C)[C@@]2(O)[C@@H](C=C(CO)C[C@]3(O)C(=O)C(C)=C[C@@H]23)[C@@H]2C(C)(C)[C@]12OC(C)=O", "note": "[PMA, reference compound]", "values": [{"measurement": "p21^Waf1/Cip1 protein levels after PMA stimulation", "setting": "[1]; non-transfected VSM cells, PMA 100 ng/ml, between 2 and 6 hours", "result": "induced"}, {"measurement": "growth of A431 cells with PMA", "setting": "[2]", "result": "significant growth inhibition"}]}
{"molecule": "5′-ATGTCCGATCCTGGTGATGTC-3′ (sense ATGTCCGATCCTGGTGATGTC; DNA, backbone not given here) [Sense p21Waf1/Cip1 control oligodeoxynucleotide, reference compound]", "values": [{"measurement": "PDGF-stimulated DNA synthesis, dose/response", "setting": "[3]; A10 VSM cells, increasing oligodeoxynucleotide concentration up to 200 nM", "result": "no effect"}, {"measurement": "PMA-induced p21^Waf1/Cip1 levels", "setting": "[1]; A10 VSM cells, PMA stimulation up to 6 hours after transfection", "result": "no effect"}, {"measurement": "PMA-induced p21^Waf1/Cip1 levels", "setting": "[4]", "result": "no effect"}]}
{"molecule": "COc1cccc2c1C(=O)c1c(O)c3c(c(O)c1C2=O)C[C@@](O)(C(=O)CO)C[C@@H]3O[C@H]1C[C@H](N)[C@H](O)[C@H](C)O1", "note": "[Adriamycin, Adriamycin (doxorubicin), reference compound]", "values": [{"measurement": "growth inhibitory effect of Adriamycin (DNA synthesis)", "setting": "[3]; control oligonucleotide transfected VSM cells, 500 to 2000 ng/ml for 2 hours", "result": "plateaued"}, {"measurement": "p21 levels after Adriamycin exposure", "setting": "[1]; VSM cells, Adriamycin 500 ng/ml", "result": "increased"}, {"measurement": "caspase-3 activation", "setting": "[5]", "result": "little effect"}]}
{"molecule": "TGF-β: growth factor TGF-β1 obtained from Upstate Biotechnology", "values": [{"measurement": "DNA synthesis in serum-starved cells", "setting": "[3]; A10 VSM cells, TGF-β 0.1 to 10 ng/ml for 24 hours", "result": "significantly reduced"}, {"measurement": "inhibitory effect of TGF-β on DNA synthesis in transfected cells", "setting": "[3]; antisense or control transfected A10 VSM cells, 10% serum, TGF-β 10 ng/ml", "result": "still present"}, {"measurement": "laminin secretion", "setting": "[6]", "result": "decrease laminin secretion at higher doses"}, {"measurement": "fibronectin production", "setting": "[7]", "result": "induced fibronectin production"}]}
